Consider one compound from paper PMC3793977, “High-Throughput Screening (HTS) and Hit Validation to Identify Small Molecule Inhibitors with Activity against NS3/4A proteases from Multiple Hepatitis C Virus Genotypes” (PLoS ONE, 2013).

One series deals with T1, full-length NS3/4A (Hepatitis C virus genotype 1b, UniProt Q9WMX2).
T1 construct: wild-type HCV NS3 (HCV polyprotein residues 1027–1657); His-tag (N); made in house
In words: SPR binding assay (dissociation equilibrium constant KD). Conditions: double referenced with blank and unrelated reference protein. The method, then:
The full-length NS3/4A enzyme was prepared in a storage buffer (50 mM HEPES, pH 7.6, 500 mM NaCl, 1 mM DTT, 0.2% Triton X-100, and 20% glycerol) and immobilized on a CM5 sensor chip using standard amine-coupling at 25°C with running buffer HBS-P (10 mM HEPES, 150 mM NaCl, 0.05% surfactant P-20, pH 7.4) using a Biacore T100 instrument. Flow channels 1 and 3 were activated by 1-ethyl-3-(3-dimethylaminopropyl) carbodiimide hydrocholoride (EDC)/N-hydroxy succinimide (NHS) mixture, and the activated surface was blocked by ethanolamine (pH 8.5) as controls. The NS3/4A enzyme was diluted in 10 mM sodium acetate (pH 5.0), and immobilized to flow channel 4 after sensor surface activation with EDC/NHS with a 7 min injection followed by ethanolamine blocking on unoccupied surface area. NS3/4A immobilization level was ∼8,500 response units (RU). An unrelated reference protein (92 kDa) was also immobilized to flow channel 2 as another control to be compared with NS3/4A (74.6 kDa). Fifteen initial hit compounds were prepared as 10 mM DMSO stock solutions. Compound solutions with a series of increasing concentrations (0–200 µM at 1.5-fold dilution) were applied to all four channels at a 10 µL/min flow rate at 25°C. Sensorgrams were analyzed using Biaevaluation software 2.0.3, and response unit difference (ΔRU) values at each concentration were measured during the equilibration phase. Data were either single referenced with a blank (enthanolamine) or double referenced with both blank and reference protein RU values. SigmaPlot 11.0 was used to fit the data to a single rectangular hyperbolic curve to determine KD values. The hyperbola function, y = ymax·x/(KD+x), was used to plot response units and corresponding concentration, where y is the response, ymax is the maximum response, and x is the compound concentration.

A short description of series [1]: Microsomal stability assay. Type of series: in vitro ADME, mouse. As for the experimental part: A typical incubation mixture (100 µL total volume) for the metabolic stability studies contained 1 µM (final concentration) test compounds, 0.5 mg/mL microsomal protein (pooled Balb/c mouse liver microsomes prepared as described previously), 100 mM Tris-HCl buffer (pH7.4), and NADPH-generating system (5 mM isocitric acid, 0.2 unit/mL isocitric acid dehydrogenase, 5 mM magnesium chloride, 1 mM NADP^+). After pre-incubation at 37°C for 5 minutes, the reactions were started by addition of NADP^+ and further incubated for another 0, 5, 10, and 20 minutes. For control experiments, NADPH and/or liver microsomes were omitted from these incubations. The reactions were terminated by adding 100 µL ice-cold acetonitrile containing phenytoin (1 µM) as an internal standard and kept on ice for 30 minutes, followed by centrifugation at 16,100 g for 15 minutes to obtain the supernatant. Aliquots (5 µL) were then analyzed for substrate disappearance using liquid chromatography-tandem mass spectrometry (Agilent 1200 HPLC interfaced with Applied Biosystems Qtrap 3200) equipped with an electrospray ion source. Chromatographic separation was carried out with a Waters XTerra MS C18 column (2.1×50 mm, 3.5 µm; Agilent Technologies, Santa Clara, CA). The mobile phases consisted of solvent A (0.1% (v/v) aqueous formic acid) and solvent B (acetonitrile). A 250 µL/min flow rate gradient was developed for each test compound over 10 minutes (Table S2 in File S1). Mass detection of test substrates and internal standard were followed in a positive ion mode by examining multiple reaction monitoring (MRM) pairs. The spraying needle voltage was set at 5000 V. Curtain gas was set at 20; gas 1 and gas 2 were set at 45 and 50, respectively; collision assisted dissociation gas was at medium; and the source heater probe temperature was at 500°C. The test compounds were quantified by comparing the ratio of ion currents obtained for the substrates and an internal standards calibration curve. Data acquisition and processing were accomplished using Analyst software (version 1.4.1; Applied Biosystems). Apparent half-lives (t1/2) for the disappearance of parent drugs were calculated from the pseudo-first-order rate constants (ke) obtained by linear regression of plots of log [drug remaining] versus time (GraphPad Prism 5 software, La Jolla, CA) using the equation: t1/2 = 0.693/ke.

T1 sequence (Q9WMX2 1658-1711): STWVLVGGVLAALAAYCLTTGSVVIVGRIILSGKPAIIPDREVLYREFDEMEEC
T1 sequence (Q9WMX2 1027-1657): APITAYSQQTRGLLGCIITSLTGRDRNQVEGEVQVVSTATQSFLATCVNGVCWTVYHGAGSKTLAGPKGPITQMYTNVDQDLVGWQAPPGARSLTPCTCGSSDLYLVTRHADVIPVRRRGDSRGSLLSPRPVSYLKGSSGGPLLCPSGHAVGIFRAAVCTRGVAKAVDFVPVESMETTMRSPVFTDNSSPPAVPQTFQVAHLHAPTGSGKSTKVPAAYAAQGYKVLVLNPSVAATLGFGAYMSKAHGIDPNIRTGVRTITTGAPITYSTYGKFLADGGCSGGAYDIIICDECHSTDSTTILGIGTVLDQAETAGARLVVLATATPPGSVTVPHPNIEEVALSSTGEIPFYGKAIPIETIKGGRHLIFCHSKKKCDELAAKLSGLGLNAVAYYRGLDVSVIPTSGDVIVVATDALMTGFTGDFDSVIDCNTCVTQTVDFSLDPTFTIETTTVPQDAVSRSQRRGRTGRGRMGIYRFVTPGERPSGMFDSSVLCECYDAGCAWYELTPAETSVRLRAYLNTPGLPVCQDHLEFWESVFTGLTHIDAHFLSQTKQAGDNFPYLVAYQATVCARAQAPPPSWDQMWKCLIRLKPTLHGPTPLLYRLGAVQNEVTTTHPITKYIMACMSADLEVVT

For the compound `Cc1cc(NC(=O)Cc2csc(NS(=O)(=O)c3ccccc3)n2)ccc1Br` [Compound 12], the “SPR binding to NS3/4A, double referenced” value on full-length NS3/4A was “specific binding”. Besides, the half-life at 1 µM in series [1] (Balb/c, pH 7.4, mouse liver microsomes 0.5 mg/mL, 1 µM compound, NADPH-generating system, read-out: Microsomal stability t1/2) turned out to be 21.7 min. Besides, the microsomal stability in series [1] (mouse liver microsomes, rounded values) amounted to 22 min.
